The nature of data set [1]: Acute toxicity (LD50), tolerability. The note with it: in vivo; species and route not given. How it is done: Im Zusammenhang mit der vorliegenden Erfindung wurde überraschend gefunden, daß Substanzen der allgemeinen Formel I wertvolle pharmakologische Eigenschaften aufweisen und insbesondere als antientzündliche Wirkstoffe eingesetzt werden können. Neben der guten Verträglichkeit - die LD50 der Verbindung aus Beispiel 1 liegt beispielsweise bei über 1000 mg/kg - zeichnen sich Verbindungen der allgemeinen Formel I durch nützliche analgetische und antipyretische Eigenschaften aus. Insbesondere eignen sich die erfindungsgemäßen Verbindungen zur Behandlung entzündlicher Erkrankungen bei Mensch und Tier. Die Krankheitsbilder, die mit den erfindungsgemäßen Verbindungen behandelt werden können, umfassen alle entzündlichen Zustände, wie zum Beispiel Entzündungen der Haut wie Radiodermatitis, Psoriasis, Akne, Ekzeme, Entzündungen am Auge wie zum Beispiel Conjunktivitis, Entzündungen im Hals-Nasen-Ohren-Bereichwie zum Beispiel katarralische Infektionen der oberen Luftwege und Sinusitis, entzündliche Erkrankungen des Gefäßsystems wie Thrombophlebitis oder Vaskulitis und Entzündungen des Nervensystems wie zum Beispiel Neuralgien oder Neuritiden. Bevorzugt zu behandelnde entzündliche Erkrankungen sind Entzündungen im Bereich des Bewegungsapparates wie Arthritiden, Arthrose, Tendinitis, Tendopathien, Kontusionen und Distorsionen, Weichteilrheumatismus, Gicht und Lumbalgien. […]

Data set [2] concerns Carrageenin-Lösung erzeugte Ödeme der rechten Hinterpfote. The data set can be described thus: Carrageenan-induced paw oedema test for anti-inflammatory activity. Type of data set: in vivo, Wistar-Ratten. The settings on record: 200 mg/kg p.o., 30 min before carrageenan; paw volume 3 h after injection; female Wistar rats, n=10. The text has this:
Die Prüfung auf antientzündliche Wirkung (C. A. Winter, E. A. Risley, G. W. Nuss; Proc. Soc. Exp. Biol. Med. 111, 544 (1962)) erfolgte durch mit 0.5 %iger wäßriger Carrageenin-Lösung erzeugte Ödeme der rechten Hinterpfote an Gruppen mit je zehn nüchternen, ca. 150 g schweren weiblichen Wistar-Ratten. Dazu wurden mit einem Plethysmometer die Volumina der markierten rechten Hinterpfote unmittelbar vor und drei Stunden nach der Injektion der Carrageenin-Lösung gemessen. Die zu prüfenden Substanzen wurden 30 Minuten vor Erzeugung des Ödems als Gummi arabicum Suspension mittels einer Schlundsonde p.o. verabreicht. Die Kontrollgruppe erhielt reines Leitungswasser. Die Einzeldosis pro Tier lag bei 200 mg/kg Körpergewicht.
Zur Auswertung wurde die prozentuale Zunahme des Pfotenvolumens für jedes Tier nach folgender Formel berechnet: [formula] dann wurden Mittelwerte und Streuung für alle so berechneten Werte einer Gruppe bestimmt. Der Unterschied zwischen der mit Prüfsubstanz behandelten Versuchs- und der zugehörigen unbehandelten Gruppe wurde nach der Formel [formula] ermittelt. Die statistische Auswertung erfolgte nach den üblichen Verfahren.
Background: Carrageenan injected into the paw causes an acute inflammation.

Bounds are passed on as bounds.

As to `COc1ccccc1NC(=O)CC(=O)C(C)C` [Beispiel 1, N-(2-Methoxyphenyl) 4-methylpentan-3-on-säureamid], the LD50 – broadly, the dose at which mortality reaches 50% – in data set [1] was greater than 1000 mg/kg. The “% Hemmung” value in data set [2] was determined as 52%.

Take `CC(C)C(=O)CC(=O)Nc1nccs1` [Beispiel 2, N-(2-Thiazolyl)-4-methylpentan-3-on-säureamid]: in data set [2], the “% Hemmung” value was 32%.

Take `COc1ccc(NC(=O)CC(=O)C(C)C)cc1` [Beispiel 3, N-(4-Methoxyphenyl)-4-methylpentan-3-on-säureamid]: the “% Hemmung” value in data set [2] turned out to be 27%.

Take `COc1ccc(C)cc1NC(=O)CC(=O)C(C)C` [Beispiel 4, N-(2-Methoxy-5-methylphenyl)-4-methylpentan-3-on-säureamid]: the “% Hemmung” value in data set [2] worked out at 26%.

The values are drawn from patent publication EP0525686A1, “Dimethylacetylacetic acid amides, process for their preparation and pharmaceutical compositions” (LUITPOLD PHARMA GmbH, priority 1991, dated 1993).
